From patent US12606561B2, “Substituted pyrazolo[1,5-a][1,3,5]triazines as CDK inhibitors” (QURIENT CO., LTD., priority 2018, dated 2026)

Legend:
[1] = tested on: OVCAR-3; assay: OVCAR-3 viability assay (CellTiter-Glo, 72 hours); assay type: cell-based; conditions: Homo sapiens; OVCAR-3 cells
Summary of the method: (§1)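 CellTiter-Glo luminescence measured viability after 72 h of compound exposure (0.0015–10 uM; DMSO below 0.1%) at 37 °C, 5% CO2, run in duplicate. Dosing began 24 h post-seeding in RPMI-1640/10% FBS at 1×10^4 (MV4-11), 5×10^3 (OVCAR-3) or 1×10^3 (A2780) cells/well.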

[2] = tested on: A2780; assay: A2780 viability assay (CellTiter-Glo, 72 hours); assay type: cell-based; conditions: Homo sapiens; A2780 cells
Summary of the method: as §1

[3] = target: T1, CDK1/Cyclin B (Homo sapiens, UniProt P06493); assay: Enzymatic assay for CDK1 (LANCE Ultra kinase assay, FRET based); assay type: biochemical; conditions: ATP at Km; read-out: CDK1 enzymatic activity IC50
T1 construct: purchased Invitrogen PR4768C
Summary of the method: (§2)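 Purified CDK7/Cyclin H/MNAT1 or CDK1/Cyclin B complexes were tested for inhibition at Km ATP. Phosphorylation of a ULight-labelled peptide was detected by FRET with a Europium anti-phospho antibody (LANCE Ultra).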

[4] = target: T2, CDK5/p25 (Homo sapiens, UniProt Q00535); assay: Enzymatic assay for CDK5 (LANCE Ultra kinase assay, FRET based); assay type: biochemical; conditions: ATP at Km
T2 construct: purchased Invitrogen PR8543B
Summary of the method: (§3)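 Inhibition was measured at ATP Km with 68 nM ULight-MBP peptide and CDK2/Cyclin A ([…]) or CDK5/p25 ([…]), using 8-dose 4-fold compound dilutions from DMSO. Kinase reaction ran 60 min at 23° C, then Eu anti-phospho-MBP plus EDTA were added for another 60 min before the fluorescence read.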

[5] = tested on: MV4-11; assay: Cellular MV4-11 viability assay (CellTiter-Glo, 72 hours); assay type: cell-based; conditions: Homo sapiens; MV4-11 cells
Procedure: Human […] cell line, MV4-11_(ATCC, Cat #CRL-9591), NSCLC (Non-small cell lung cancer) cell line H460 (ATCC, Cat #HTB-177), A2780 (ECACC, Cat #93112519) and OVCAR-3(ATCC, Cat #HTB-161) were obtained from ATCC. Cells were grown in RPMI-1640 media (Invitrogen, Cat #22400-089) supplemented with 10% FBS (Invitrogen, Cat #10099141) and 1% penicillin/streptomycin (Invitrogen, Cat #15070063) and cultured at 37° C., 5% CO2 in a humidified chamber. All cell lines were routinely tested for mycoplasma.
To effect of the CDK7 inhibitor to inhibit the growth of target cancer cells, viability assay were conducted a 72 hour time period. Briefly, the candidate cell line was plated in 96 well plate at the following density of cells respectively. 1×10^4 cells/well for MV4-11, 5×10^3 for H460 and OVCAR-3, and 1×10^3 for A2780. After 24 hours, the cells were treated with various concentrations of the compound (ranging from 0.0015 uM to 10 uM). DMSO solvent without compound served as a control and final DMSO concentration lest than 0.1%. After 72 hours of incubation at 37° C., 5% CO2 incubator, cells were analyzed for the viability using the CellTiter-Glo Luminescent Cell Viability Assay (Promega, Cat #G7570). All viability assays were performed in duplicate and Luminescence was read using an Envision (Perkin Elmer, USA). Data was analyzed using XLfit software.

[6] = target: T3, CDK7/Cyclin H/MNAT1 (Homo sapiens, UniProt P50613); assay: Enzymatic assay for CDK7 (LANCE Ultra kinase assay, FRET based); assay type: biochemical; conditions: for IC50: ATP at Km
T3 construct: purchased Invitrogen PR6749B
Summary of the method: as §2

[7] = target: T4, CDK2/Cyclin A (Homo sapiens, UniProt P24941); assay: Enzymatic assay for CDK2 (LANCE Ultra kinase assay, FRET based); assay type: biochemical; conditions: ATP at Km
T4 construct: purchased Invitrogen PV6290
Summary of the method: as §3

T3 sequence (P50613 whole entry): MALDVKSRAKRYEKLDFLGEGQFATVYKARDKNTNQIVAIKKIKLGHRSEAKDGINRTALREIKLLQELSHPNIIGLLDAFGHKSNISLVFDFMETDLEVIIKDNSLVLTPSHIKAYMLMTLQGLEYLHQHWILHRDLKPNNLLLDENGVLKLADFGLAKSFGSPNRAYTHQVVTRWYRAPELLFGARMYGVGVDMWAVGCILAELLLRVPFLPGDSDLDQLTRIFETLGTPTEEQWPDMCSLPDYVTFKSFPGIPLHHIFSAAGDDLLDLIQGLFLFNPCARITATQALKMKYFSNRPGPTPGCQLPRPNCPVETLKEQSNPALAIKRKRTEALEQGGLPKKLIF
T3 sequence (P51946 whole entry partner): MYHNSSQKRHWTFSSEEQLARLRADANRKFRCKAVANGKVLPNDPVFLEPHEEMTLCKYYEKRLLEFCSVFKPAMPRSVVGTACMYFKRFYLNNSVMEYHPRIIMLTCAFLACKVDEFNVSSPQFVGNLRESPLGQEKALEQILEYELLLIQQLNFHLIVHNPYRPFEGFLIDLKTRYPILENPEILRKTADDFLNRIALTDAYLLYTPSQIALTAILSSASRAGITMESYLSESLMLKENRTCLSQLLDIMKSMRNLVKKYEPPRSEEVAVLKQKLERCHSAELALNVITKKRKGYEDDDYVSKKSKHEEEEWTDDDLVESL
T3 sequence (P51948 whole entry partner): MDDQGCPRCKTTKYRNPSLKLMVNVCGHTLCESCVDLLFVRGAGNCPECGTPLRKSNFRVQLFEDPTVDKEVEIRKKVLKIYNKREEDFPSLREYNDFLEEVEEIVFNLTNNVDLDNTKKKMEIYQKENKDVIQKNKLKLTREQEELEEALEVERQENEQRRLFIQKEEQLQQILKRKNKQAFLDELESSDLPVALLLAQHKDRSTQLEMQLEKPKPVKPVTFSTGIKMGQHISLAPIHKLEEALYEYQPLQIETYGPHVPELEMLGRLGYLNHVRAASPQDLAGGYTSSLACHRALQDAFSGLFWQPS
T2 sequence (Q00535 whole entry): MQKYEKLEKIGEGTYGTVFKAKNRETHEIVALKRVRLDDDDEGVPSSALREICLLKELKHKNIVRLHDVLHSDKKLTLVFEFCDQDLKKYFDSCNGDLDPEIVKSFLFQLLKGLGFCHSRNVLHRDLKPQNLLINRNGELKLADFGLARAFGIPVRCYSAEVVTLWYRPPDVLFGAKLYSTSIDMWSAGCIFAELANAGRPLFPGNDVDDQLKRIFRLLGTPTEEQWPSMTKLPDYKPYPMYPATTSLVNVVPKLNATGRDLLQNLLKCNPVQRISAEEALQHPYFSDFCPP
T2 sequence (Q15078 99-307 partner limits assumed): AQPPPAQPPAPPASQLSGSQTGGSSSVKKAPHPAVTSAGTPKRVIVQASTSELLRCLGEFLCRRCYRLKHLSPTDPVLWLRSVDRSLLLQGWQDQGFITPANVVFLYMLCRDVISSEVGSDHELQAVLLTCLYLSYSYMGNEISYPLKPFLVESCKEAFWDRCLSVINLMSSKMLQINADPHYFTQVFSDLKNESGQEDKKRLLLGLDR
T1 sequence (P06493 whole entry): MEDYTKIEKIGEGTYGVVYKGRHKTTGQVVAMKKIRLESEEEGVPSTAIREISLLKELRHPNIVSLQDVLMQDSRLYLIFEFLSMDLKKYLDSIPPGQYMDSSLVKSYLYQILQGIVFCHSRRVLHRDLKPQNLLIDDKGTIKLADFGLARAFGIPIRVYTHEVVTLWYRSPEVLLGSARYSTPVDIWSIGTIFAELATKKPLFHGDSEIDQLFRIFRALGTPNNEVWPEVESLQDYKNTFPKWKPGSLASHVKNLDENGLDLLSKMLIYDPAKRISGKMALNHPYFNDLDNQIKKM
T1 sequence (P14635 whole entry partner): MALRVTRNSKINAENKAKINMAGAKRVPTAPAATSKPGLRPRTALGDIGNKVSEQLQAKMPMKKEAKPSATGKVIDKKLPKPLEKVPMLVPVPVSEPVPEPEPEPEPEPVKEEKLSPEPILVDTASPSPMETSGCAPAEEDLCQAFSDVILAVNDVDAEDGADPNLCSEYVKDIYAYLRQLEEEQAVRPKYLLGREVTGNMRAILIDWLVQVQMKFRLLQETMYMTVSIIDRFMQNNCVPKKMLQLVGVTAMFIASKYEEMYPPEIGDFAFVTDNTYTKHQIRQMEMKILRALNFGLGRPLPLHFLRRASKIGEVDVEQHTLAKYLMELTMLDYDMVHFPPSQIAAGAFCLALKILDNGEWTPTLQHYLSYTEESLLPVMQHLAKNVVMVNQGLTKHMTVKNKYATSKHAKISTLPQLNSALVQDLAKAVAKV

| IC50 [1] | IC50 [2] | IC50 [3] | IC50 [4] | IC50 [5] | IC50 [6] | CDK1/CDK7: Selectivity of CDK7 inhibition over CDK1 inhibition [6] | CDK2/CDK7: Selectivity of CDK7 inhibition over CDK2 inhibition [6] | CDK5/CDK7: Selectivity of CDK7 inhibition over CDK5 inhibition [6] | IC50 [7] | Compound |
| --- | --- | --- | --- | --- | --- | --- | --- | --- | --- | --- |
| < 1000 nM | < 1000 nM | > 1000 nM | > 1000 nM | < 1000 nM | 100 to 1000 nM | B (B indicates 50 < [fold] ≤ 500) | B (B indicates 50 < [fold] ≤ 500) | B (B indicates 50 < [fold] ≤ 500) | > 1000 nM | CC(C)c1cnn2c(NCc3ccccc3-c3nccc4cc(NC(=O)/C=C/CN(C)C)ccc34)nc(NCC3CCNC(=O)C3)nc12 (racemic) [Compound 30] |
| < 1000 nM | < 1000 nM | > 1000 nM | > 1000 nM | < 1000 nM | 100 to 1000 nM | B (B indicates 50 < [fold] ≤ 500) | B (B indicates 50 < [fold] ≤ 500) | B (B indicates 50 < [fold] ≤ 500) | > 1000 nM | CC(C)c1cnn2c(NCc3ccccc3-c3nccc4cc(NC(=O)/C=C/CN(C)C)ccc34)nc(N3CCC(O)C3)nc12 (racemic) [Compound 37] |
| < 1000 nM | < 1000 nM | > 1000 nM | > 1000 nM | < 1000 nM | 100 to 1000 nM | B (B indicates 50 < [fold] ≤ 500) | B (B indicates 50 < [fold] ≤ 500) | B (B indicates 50 < [fold] ≤ 500) | > 1000 nM | CC(C)c1cnn2c(NCc3ccccc3-c3nccc4cc(NC(=O)/C=C/CN(C)C)ccc34)nc(N3CCCC(O)CC3)nc12 (racemic) [Compound 38] |
| < 1000 nM | < 1000 nM | > 1000 nM | > 1000 nM | < 1000 nM | < 100 nM | A (A indicates [fold] > 500) | A (A indicates [fold] > 500) | A (A indicates [fold] > 500) | > 1000 nM | CC(C)c1cnn2c(NCc3ccccc3-c3nccc4cc(NC(=O)/C=C/CN(C)C)ccc34)nc(NCCC3CNCCO3)nc12 (racemic) [Compound 51] |
| < 1000 nM | < 1000 nM | > 1000 nM | > 1000 nM |  | < 100 nM | A (A indicates [fold] > 500) | A (A indicates [fold] > 500) | A (A indicates [fold] > 500) | > 1000 nM | C=C(F)C(=O)Nc1ccc2c(-c3ccccc3CNc3nc(N[C@@H]4CCCN(C)C4)nc4c(C(C)C)cnn34)nccc2c1 [Compound 173] |
| < 1000 nM | < 1000 nM | > 1000 nM | > 1000 nM |  | < 100 nM | A (A indicates [fold] > 500) | A (A indicates [fold] > 500) | A (A indicates [fold] > 500) | > 1000 nM | C=C(F)C(=O)Nc1ccc2c(-c3ccccc3CNc3nc(N[C@@H]4CCC(C)(C)NC4)nc4c(C(C)C)cnn34)nccc2c1 [Compound 174] |
| < 1000 nM | < 1000 nM | > 1000 nM | > 1000 nM |  | < 100 nM | A (A indicates [fold] > 500) | A (A indicates [fold] > 500) | A (A indicates [fold] > 500) | > 1000 nM | C=C(F)C(=O)Nc1ccc2c(-c3ccccc3CNc3nc(NC4CCC(C)(C)NC4)nc4c(C(C)C)cnn34)nccc2c1 (stereo not shown) [Compound 175] |
| < 1000 nM | < 1000 nM | > 1000 nM | > 1000 nM |  | < 100 nM | A (A indicates [fold] > 500) | A (A indicates [fold] > 500) | A (A indicates [fold] > 500) | > 1000 nM | C=C(F)C(=O)Nc1ccc2c(-c3ccccc3CNc3nc(OC4CCC(C)(C)NC4)nc4c(C(C)C)cnn34)nccc2c1 (stereo not shown) [Compound 177] |
| < 1000 nM | < 1000 nM | > 1000 nM | > 1000 nM |  | < 100 nM | A (A indicates [fold] > 500) | A (A indicates [fold] > 500) | A (A indicates [fold] > 500) | > 1000 nM | C=CC(=O)Nc1ccc2c(-c3ccccc3CNc3nc(NC4CCC(C)(C)NC4)nc4c(C(C)C)cnn34)nccc2c1 (stereo not shown) [Compound 178] |
| < 1000 nM | < 1000 nM | > 1000 nM | > 1000 nM |  | < 100 nM | A (A indicates [fold] > 500) | A (A indicates [fold] > 500) | A (A indicates [fold] > 500) | > 1000 nM | CC(C)c1cnn2c(NCc3ccccc3-c3nccc4cc(NC(=O)/C=C/CN(C)C)ccc34)nc(NC3CCC(C)(C)NC3)nc12 (stereo not shown) [Compound 179] |
| < 1000 nM | < 1000 nM | > 1000 nM | > 1000 nM |  | < 100 nM | A (A indicates [fold] > 500) | A (A indicates [fold] > 500) | A (A indicates [fold] > 500) | > 1000 nM | CC(C)c1cnn2c(NCc3ccccc3-c3nccc4cc(NC(=O)/C=C/CN5CCOCC5)ccc34)nc(NC3CCC(C)(C)NC3)nc12 (stereo not shown) [Compound 180] |
| < 1000 nM | < 1000 nM | > 1000 nM | > 1000 nM |  | < 100 nM | A (A indicates [fold] > 500) | A (A indicates [fold] > 500) | A (A indicates [fold] > 500) | > 1000 nM | C=C(C)C(=O)Nc1ccc2c(-c3ccccc3CNc3nc(NC4CCC(C)(C)NC4)nc4c(C(C)C)cnn34)nccc2c1 (stereo not shown) [Compound 181] |
| 1000 to 10000 nM | < 1000 nM | > 1000 nM | > 1000 nM |  | 100 to 1000 nM | B (B indicates 50 < [fold] ≤ 500) | B (B indicates 50 < [fold] ≤ 500) | B (B indicates 50 < [fold] ≤ 500) | > 1000 nM | C=CC(=O)Nc1ccc2c(-c3ccccc3CNc3nc(Oc4cccnc4)nc4c(C(C)C)cnn34)nccc2c1 [Compound 182] |

| Compound | IC50 [1] | IC50 [2] | IC50 [3] | IC50 [4] | IC50 [5] | IC50 [6] | CDK1/CDK7: Selectivity of CDK7 inhibition over CDK1 inhibition [6] | CDK2/CDK7: Selectivity of CDK7 inhibition over CDK2 inhibition [6] | CDK5/CDK7: Selectivity of CDK7 inhibition over CDK5 inhibition [6] | IC50 [7] |
| --- | --- | --- | --- | --- | --- | --- | --- | --- | --- | --- |
| C=C(F)C(=O)Nc1ccc2c(-c3ccccc3CNc3nc(N[C@H]4CN5CCC4CC5)nc4c(C(C)C)cnn34)nccc2c1 [Compound 176] | < 1000 nM | < 1000 nM | > 1000 nM | > 1000 nM |  | < 100 nM | A (A indicates [fold] > 500) | A (A indicates [fold] > 500) | A (A indicates [fold] > 500) | > 1000 nM |
